# Data reported in patent US6773912B1, “Lantibiotic” (University of Otago, priority 1999, dated 2004).
# Experiments:
# Assay type in all cases: cell-based
# Streptococcus sobrinus = assay: Agar surface assay, inhibitory spectrum; conditions: 4 tested; 20 ul drops of preparation of titre 16 Ua/ml; 37° C. for 18 h
# Method: (§1) Salivaricin activity is titrated using an agar surface assay. Drops (20 ul) of two-fold saline dilutions of the sample are assayed against Microoccus luteus T-18 on Columbia agar base. The reciprocal of the highest dilution to produce a definite zone of inhibition of the growth of the indicator lawn is the titre in arbitrary units per ml (Au/ml) of salivaricin activity.
# (§2) By contrast the partially purified preparation of salivaricin A2 of titre 16 when tested using under the same conditions killed less than 10% of strain FF22 cells. Further tests of the inhibitory spectra of partially purified salivaricin A2 and salivaricin B preparations were done by using the agar surface assay described above. Drops (20 ul) of a preparation of titre 16 Ua/ml were spotted onto lawn cultures of the test strains that had been freshly inoculated by swabbing the surface of a Columbia agar base plate with a 1/100 dilution in saline of an 18 h Todd Hewitt broth culture of that strain. Production of a definite zone of inhibited test strain growth upon incubation of these plates at 37° C. for 18 h was taken to indicate sensitivity of that strain to the salivaricin.
# [1] = system: Corynebacterium diphtheriae; assay: Agar surface assay, inhibitory spectrum; conditions: 4 tested; 20 ul drops of preparation of titre 16 Ua/ml; 37° C. for 18 h
# Method: as §1, §2
# Streptococcus sanguis = assay: Agar surface assay, inhibitory spectrum; conditions: 6 tested; 20 ul drops of preparation of titre 16 Ua/ml; 37° C. for 18 h
# Method: as §1, §2
# Staphylococcus aureus = assay: Agar surface assay, inhibitory spectrum; conditions: 4 tested; 20 ul drops of preparation of titre 16 Ua/ml; 37° C. for 18 h
# Method: as §1, §2
# Escherichia coli = assay: Agar surface assay, inhibitory spectrum; conditions: 2 tested; 20 ul drops of preparation of titre 16 Ua/ml; 37° C. for 18 h
# Method: as §1, §2
# [2] = system: Stomatococcus mucilagenosus; assay: Agar surface assay, inhibitory spectrum; conditions: 4 tested; 20 ul drops of preparation of titre 16 Ua/ml; 37° C. for 18 h
# Method: as §1, §2
# Branhamella catarrhalis = assay: Agar surface assay, inhibitory spectrum; conditions: 1 tested; 20 ul drops of preparation of titre 16 Ua/ml; 37° C. for 18 h
# Method: as §1, §2
# [3] = system: Streptococcus equisimilis; assay: Agar surface assay, inhibitory spectrum; conditions: 5 tested; 20 ul drops of preparation of titre 16 Ua/ml; 37° C. for 18 h
# Method: as §1, §2
# Lactobactillus casei = assay: Agar surface assay, inhibitory spectrum; conditions: 2 tested; 20 ul drops of preparation of titre 16 Ua/ml; 37° C. for 18 h
# Method: as §1, §2
# Streptococcus mutans = assay: Agar surface assay, inhibitory spectrum; conditions: 6 tested; 20 ul drops of preparation of titre 16 Ua/ml; 37° C. for 18 h
# Method: as §1, §2
# Streptococcus pyogenes = assay: Agar surface assay, inhibitory spectrum; conditions: 15 tested; 20 ul drops of preparation of titre 16 Ua/ml; 37° C. for 18 h
# Method: as §1, §2
# Streptococcus agalactiae = assay: Agar surface assay, inhibitory spectrum; conditions: 5 tested; 20 ul drops of preparation of titre 16 Ua/ml; 37° C. for 18 h
# Method: as §1, §2
# Streptococcus pneumoniae = assay: Agar surface assay, inhibitory spectrum; conditions: 4 tested; 20 ul drops of preparation of titre 16 Ua/ml; 37° C. for 18 h
# Method: as §1, §2
# [4] = system: Streptococcus pyogenes strain FF22; assay: Decrease in colony-forming units after mixing cells with salivaricin preparation; conditions: partially purified preparation of titre 16; 4 h at 37° C.; exponential Todd Hewitt broth culture cells
# Method: The inhibitory activity of the salivaricins was determined by measurement of the decrease with time in the number of colony-forming units (CFU) of a suspension of the sensitive indicator streptococcus (Streptococcus pyogenes strain FF22) after mixing the cells with a salivaricin preparation. Twice-washed cells from an exponential Todd Hewitt broth culture of the indicator streptococcus were resuspended in 0.067 M phosphate buffer (pH 6.5) to the original culture volume. Portions of partially purified salivaricin (titre 16 Au/ml) or of phosphate buffer (control) were then mixed with an equal volume of the washed cell suspension and incubation was continued at 37° C. Survivors were determined at intervals by plating suitable 10-fold dilutions (in cold Todd Hewitt broth) of the test and control mixtures on Columbia agar base and incubating at 37° C. for 24 h. Viable counts were expressed as the total number of CFU per ml.
substance,measurement,setting,value
"salivaricin A2: BLIS co-expressed by S. salivarius K12 and K30, related but not identical to salivaricin A; sequence in FIG. 3 (KRGTGWFATITDDCPNSVFVCC; listed as Streptococcus salivarius)",Number of strains sensitive,Streptococcus sobrinus,0
same,Number of strains sensitive,[1],0
same,Number of strains sensitive,Streptococcus sanguis,0
same,Number of strains sensitive,Staphylococcus aureus,0
same,Number of strains sensitive,Escherichia coli,0
same,Number of strains sensitive,[2],0
same,Number of strains sensitive,Branhamella catarrhalis,0
same,Number of strains sensitive,[3],5
same,Number of strains sensitive,Lactobactillus casei,1
same,Number of strains sensitive,Streptococcus mutans,0
same,Number of strains sensitive,Streptococcus pyogenes,15
same,Number of strains sensitive,Streptococcus agalactiae,0
same,Number of strains sensitive,Streptococcus pneumoniae,1
same,CFU killed,[4],less than 10%
